Laboratory results: patent US11667651B2, “Aminopyridine derivatives as phosphatidylinositol phosphate kinase inhibitors” (HiberCell, Inc., priority 2017, dated 2023)

Assays:
Format in all cases: biochemical
PIP4K2B = target: T1, PIP4K2B (Homo sapiens, UniProt P78356); experiment: Trans-FI P kinase assay PIP4K2B (Table 4); settings: compounds listed under IC50 bins; read-out: Trans-FI P kinase assays: PIP4K2B IC50
T1 construct: made in house; host or cells: E. coli
T1 sequence (P78356 1-416): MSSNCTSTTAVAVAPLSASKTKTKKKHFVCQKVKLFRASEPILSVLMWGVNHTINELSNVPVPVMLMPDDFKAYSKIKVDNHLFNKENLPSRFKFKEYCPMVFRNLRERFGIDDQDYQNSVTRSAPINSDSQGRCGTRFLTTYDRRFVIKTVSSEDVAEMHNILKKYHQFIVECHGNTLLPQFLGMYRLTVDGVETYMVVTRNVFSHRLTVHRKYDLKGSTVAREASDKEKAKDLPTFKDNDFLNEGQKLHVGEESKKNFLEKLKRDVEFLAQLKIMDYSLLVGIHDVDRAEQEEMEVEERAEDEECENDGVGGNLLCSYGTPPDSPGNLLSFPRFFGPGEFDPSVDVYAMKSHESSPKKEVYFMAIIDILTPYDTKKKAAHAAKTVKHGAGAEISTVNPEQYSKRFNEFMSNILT
Method in brief: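 Transcreener FI detection (Ex 584/Em 623) of GDP, converted via calibration curve, gives IC50 from residual activity versus log concentration (highest 4.8 μM). Reaction: 80 μM PI5P plus DOPE carrier, 100 μM GTP, 5 nM GST-tagged enzyme, pH 7.3 HEPES with MgCl2 and 5% DMSO, 2 h after 1 h enzyme-compound preincubation at 27° C.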

PIP4K2A [1] = target: T2, PIP4K2A (Homo sapiens, UniProt P48426); experiment: ADP-glo kinase assay PIP4K 2A (Table 3); set-up: made in house; host or cells: E. coli; settings: compounds listed under IC50 bins
T2 sequence (P48426 1-406): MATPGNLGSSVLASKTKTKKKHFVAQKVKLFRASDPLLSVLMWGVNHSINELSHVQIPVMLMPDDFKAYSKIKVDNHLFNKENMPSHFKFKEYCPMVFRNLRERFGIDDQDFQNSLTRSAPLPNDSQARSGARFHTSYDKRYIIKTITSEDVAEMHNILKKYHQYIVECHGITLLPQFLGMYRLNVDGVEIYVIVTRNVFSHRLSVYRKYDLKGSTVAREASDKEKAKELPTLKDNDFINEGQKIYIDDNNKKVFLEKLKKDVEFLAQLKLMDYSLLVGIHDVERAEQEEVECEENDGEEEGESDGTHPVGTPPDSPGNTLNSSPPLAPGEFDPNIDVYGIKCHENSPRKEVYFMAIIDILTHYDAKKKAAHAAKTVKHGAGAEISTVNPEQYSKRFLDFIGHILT
Method in brief: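 ADP-Glo luminescence detected ADP after 1 h RT reaction started by ATP (60 μM solution) on full-length PIP4K2A (4 nM in mix) and PI(5)P diC8 (100 μM in mix), preceded by 15 min enzyme-compound preincubation in MOPS pH 7.2/25 mM MgCl2. Percent inhibition versus DMSO over 10 concentrations fitted for IC50.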

PIP4K2A [2] = target: T2, PIP4K2A; experiment: Kinase Assay PIP4K2 A (Table 2); set-up: 4 nM PIP4K2A (full length protein, SignalChem); purchased SignalChem; settings: compounds listed under IC50 bins
Method in brief: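 ADP-Glo luminescent read-out after 1 h room-temperature kinase reaction, started with 60 μM ATP solution following 15 min compound pre-incubation. Enzyme/substrate mix: 4 nM full-length PIP4K2A plus 100 μM PI(5)P diC8; buffer MOPS pH 7.2 with 25 mM MgCl2 and Tween 20. IC50 from 10-point, 3-fold titrations normalized to DMSO.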

SMILES | IC50 (PIP4K2B) | IC50 (PIP4K2A [1]) | IC50 (PIP4K2A [2])
CN(C)C(=O)c1ccc(-c2ccc(Nc3cncc(NC(=O)c4cccc(NC(=O)CCOCCOCCN)c4)c3)nc2)cc1 [Example 113, 4-(6-((5-(3-(3-(2-(2-aminoethoxy)ethoxy)propanamido)benzamido)pyridin-3-yl)amino)pyridin-3-yl)-N,N-dimethylbenzamide] | 10 to 100 nM | 10 to 100 nM | 10 to 100 nM
CN(C)C/C=C/C(=O)NCCOCCOCCC(=O)Nc1cccc(C(=O)Nc2cncc(Nc3ccc(-c4ccc(C(=O)N(C)C)cc4)cn3)c2)c1 [Example 114, (E)-N,N-dimethyl-4-(6-((5-(3-(2-methyl-6-oxo-10,13-dioxa-2,7-diazahexadec-4-en-16-amido)benzamido)pyridin-3-yl)amino)pyridin-3-yl)benzamide] | 10 to 100 nM | 100 to 1000 nM | 10 to 100 nM
CN(C)C(=O)c1ccc(-c2ccc(Nc3cncc(NC(=O)c4ccc(N)cc4)c3)nc2)cc1 [Example 116, 4-(6-((5-(4-aminobenzamido)pyridin-3-yl)amino)pyridin-3-yl)-N,N-dimethylbenzamide] | 10 to 100 nM | 10 to 100 nM | 10 to 100 nM
CN(C)C/C=C/C(=O)Nc1ccc(C(=O)Nc2cncc(Nc3ccc(-c4ccc(C(=O)N(C)C)cc4)cn3)c2)cc1 [Example 117, (E)-4-(6-((5-(4-(4-(dimethylamino)but-2-enamido)benzamido)pyridin-3-yl)amino)pyridin-3-yl)-N,N-dimethylbenzamide] | 10 to 100 nM | 10 to 100 nM | 1 to 10 nM
CN(C)C(=O)c1ccc(-c2ccc(Nc3cncc(NC(=O)CCc4ccc(N)cc4)c3)nc2)cc1 [Example 118, 4-(6-((5-(3-(4-aminophenyl)propanamido)pyridin-3-yl)amino)pyridin-3-yl)-N,N-dimethylbenzamide] | 10 to 100 nM | 10 to 100 nM | 10 to 100 nM
CN(C)C/C=C/C(=O)Nc1ccc(CCC(=O)Nc2cncc(Nc3ccc(-c4ccc(C(=O)N(C)C)cc4)cn3)c2)cc1 [Example 119, (E)-4-(6-((5-(3-(4-(4-(dimethylamino)but-2-enamido)phenyl)propanamido)pyridin-3-yl)amino)pyridin-3-yl)-N,N-dimethylbenzamide] | 10 to 100 nM | 10 to 100 nM | 1 to 10 nM
COC(=O)Nc1cncc(Nc2ccc(-c3ccc(C(=O)N(C)C)cc3)cn2)c1 [Example 120, methyl(5-((5-(4-(dimethylcarbamoyl)phenyl)pyridin-2-yl)amino)pyridin-3-yl)carbamate] | 10 to 100 nM | 100 to 1000 nM | 10 to 100 nM
CN(C)C(=O)c1ccc(-c2ccc(Nc3cncc(NC(=O)c4ccccc4)c3)nc2)cc1 [Example 121, 4-(6-((5-benzamidopyridin-3-yl)amino)pyridin-3-yl)-N,N-dimethylbenzamide] | 10 to 100 nM | 10 to 100 nM | 10 to 100 nM
CN(C)C(=O)c1ccc(-c2ccc(Nc3cncc(NC(=O)CC#N)c3)nc2)cc1 [Example 122, 4-(6-((5-(2-cyanoacetamido)pyridin-3-yl)amino)pyridin-3-yl)-N,N-dimethylbenzamide] | 10 to 100 nM | 100 to 1000 nM | 10 to 100 nM
CN(C)C(=O)c1ccc(-c2ccc(Nc3cncc(NC(=O)Cc4ccccc4)c3)nc2)cc1 [Example 123, N,N-dimethyl-4-(6-((5-(2-phenylacetamido)pyridin-3-yl)amino)pyridin-3-yl)benzamide] | 10 to 100 nM | 100 to 1000 nM | 10 to 100 nM
CNC(=O)Nc1cncc(Nc2ccc(-c3ccc(C(=O)N(C)C)cc3)cn2)c1 [Example 124, N,N-dimethyl-4-(6-((5-(3-methylureido)pyridin-3-yl)amino)pyridin-3-yl)benzamide] | 10 to 100 nM | 10 to 100 nM | 10 to 100 nM
CN(C)CC(=O)Nc1cncc(Nc2ccc(-c3ccc(C(=O)N(C)C)cc3)cn2)c1 [Example 125, 4-(6-((5-(2-(dimethylamino)acetamido)pyridin-3-yl)amino)pyridin-3-yl)-N,N-dimethylbenzamide] | 10 to 100 nM | 100 to 1000 nM | 100 to 1000 nM
CN(C)C(=O)c1ccc(-c2ccc(Nc3cncc(NC(=O)C4CCOCC4)c3)nc2)cc1 [Example 126, N-(5-((5-(4-(dimethylcarbamoyl)phenyl)pyridin-2-yl)amino)pyridin-3-yl)tetrahydro-2H-pyran-4-carboxamide] | 10 to 100 nM | 100 to 1000 nM | 10 to 100 nM
CN(C)C(=O)c1ccc(-c2ccc(Nc3cncc(NS(C)(=O)=O)c3)nc2)cc1 [Example 127, N,N-dimethyl-4-(6-((5-(methylsulfonamido)pyridin-3-yl)amino)pyridin-3-yl)benzamide] | 10 to 100 nM | 10 to 100 nM | 10 to 100 nM
CN(C)C(=O)c1ccc(-c2ccc(Nc3cncc(NC(=O)c4ccccn4)c3)nc2)cc1 [Example 128, N-(5-((5-(4-(dimethylcarbamoyl)phenyl)pyridin-2-yl)amino)pyridin-3-yl)picolinamide] | 10 to 100 nM | 100 to 1000 nM | 10 to 100 nM

Continued, values first:

IC50 (PIP4K2B) | IC50 (PIP4K2A [1]) | IC50 (PIP4K2A [2]) | SMILES
10 to 100 nM | 100 to 1000 nM | 10 to 100 nM | CN(C)C(=O)c1ccc(-c2ccc(Nc3cncc(NC(=O)c4cccnc4)c3)nc2)cc1 [Example 129, N-(5-((5-(4-(dimethylcarbamoyl)phenyl)pyridin-2-yl)amino)pyridin-3-yl)nicotinamide]
10 to 100 nM | 100 to 1000 nM | 10 to 100 nM | CN(C)C(=O)c1ccc(-c2ccc(Nc3cncc(NC(=O)c4ccncc4)c3)nc2)cc1 [Example 130, N-(5-((5-(4-(dimethylcarbamoyl)phenyl)pyridin-2-yl)amino)pyridin-3-yl)isonicotinamide]
10 to 100 nM | 10 to 100 nM | 1 to 10 nM | CN(C)C(=O)c1ccc(-c2ccc(Nc3cncc(NC(=O)c4ccnc(N)c4)c3)nc2)cc1 [Example 131, 2-amino-N-(5-((5-(4-(dimethylcarbamoyl)phenyl)pyridin-2-yl)amino)pyridin-3-yl)isonicotinamide]
10 to 100 nM | 10 to 100 nM | 1 to 10 nM | CN(C)C(=O)c1ccc(-c2ccc(Nc3cncc(NC(=O)c4ccc5c(c4)COB5O)c3)nc2)cc1 [Example 132, N-(5-((5-(4-(dimethylcarbamoyl)phenyl)pyridin-2-yl)amino)pyridin-3-yl)-1-hydroxy-1,3-dihydrobenzo[c][1,2]oxaborole-5-carboxamide]
10 to 100 nM | 10 to 100 nM | 10 to 100 nM | CN(C)C(=O)c1ccc(-c2ccc(Nc3cncc(NC(=O)c4ccc5c(c4)B(O)OC5)c3)nc2)cc1 [Example 133, N-(5-((5-(4-(dimethylcarbamoyl)phenyl)pyridin-2-yl)amino)pyridin-3-yl)-1-hydroxy-1,3-dihydrobenzo[c][1,2]oxaborole-6-carboxamide]
10 to 100 nM | 10 to 100 nM | 10 to 100 nM | CN(C)C(=O)c1ccc(-c2ccc(Nc3cncc(N4CCC(Cc5cccc(N)c5)C4=O)c3)nc2)cc1 (stereo not drawn) [Example 134, 4-(6-((5-(3-(3-aminobenzyl)-2-oxopyrrolidin-1-yl)pyridin-3-yl)amino)pyridin-3-yl)-N,N-dimethylbenzamide]
10 to 100 nM | 10 to 100 nM | 10 to 100 nM | CN(C)C(=O)c1ccc(-c2ccc(Nc3cncc(NC(=O)c4ccc5cc[nH]c5c4)c3)nc2)cc1 [Example 135, N-(5-((5-(4-(dimethylcarbamoyl)phenyl)pyridin-2-yl)amino)pyridin-3-yl)-1H-indole-6-carboxamide]
